The values that follow come from ChEMBL document CHEMBL5257124, “Design, synthesis and biological evaluation of novel indole-piperazine derivatives as antibacterial agents” (Bioorg Med Chem Lett, 2023).

Values after ≈ are worked out from the molar mass of the structure shown.

Holding throughout (assay type): functional
The test system of assay [1] is Staphylococcus aureus. Nature of the assay: Antibacterial activity against methicillin resistant Staphylococcus aureus ATCC 33591 assessed as reduction in bacterial growth.
The test system of assay [2] is Staphylococcus aureus. The assay is described as follows: Antibacterial activity against Staphylococcus aureus ATCC 25923 assessed as reduction in bacterial growth.
In a further assay the test system is Bacillus cereus. The assay is described as follows: Antibacterial activity against Bacillus cereus assessed as reduction in bacterial growth.
Another assay relates to Escherichia coli. Nature of the assay: Antibacterial activity against Escherichia coli ATCC 25922 assessed as reduction in bacterial growth.
A further assay concerns Pseudomonas syringae. Nature of the assay: Antibacterial activity against Pseudomonas syringae pv. actinidiae assessed as bacterial growth inhibition.
For a further assay, the system named is Ralstonia solanacearum. Nature of the assay: Antibacterial activity against Ralstonia solanacearum assessed as bacterial growth inhibition.

The term MIC denotes the smallest concentration in the dilution series that meets the test's criterion for growth inhibition.

As for `Fc1ccc2[nH]cc(CN3CCN(Cc4ccc(C(F)(F)F)cc4N4CCCC4)CC3)c2c1`, the minimal inhibitory concentration (MIC) in the assay on Staphylococcus aureus [1] stood at 8 µg/mL (≈ 17.4 µM); in the assay on Staphylococcus aureus [2] it was 16 µg/mL (≈ 34.7 µM); in the assay on Bacillus cereus, 8 µg/mL (≈ 17.4 µM); in the assay on Escherichia coli, 128 µg/mL (≈ 278 µM); in the assay on Pseudomonas syringae, 128 µg/mL (≈ 278 µM); in the assay on Ralstonia solanacearum, 128 µg/mL (≈ 278 µM).

For the molecule `Cn1cc(CN2CCN(Cc3ccc(C(F)(F)F)cc3N3CCCC3)CC2)c2cc(F)ccc21`, the minimal inhibitory concentration (MIC) in the assay on Staphylococcus aureus [1] is 8 µg/mL (≈ 16.9 µM); in the assay on Staphylococcus aureus [2], 8 µg/mL (≈ 16.9 µM); with Bacillus cereus it was 8 µg/mL (≈ 16.9 µM); with Escherichia coli it was 32 µg/mL (≈ 67.4 µM); in the assay on Pseudomonas syringae, 32 µg/mL (≈ 67.4 µM); in the assay on Ralstonia solanacearum it was 32 µg/mL (≈ 67.4 µM).

Consider `N#Cc1ccc2[nH]cc(CN3CCN(Cc4ccc(C(F)(F)F)cc4N4CCCC4)CC3)c2c1`, for which the MIC with Staphylococcus aureus [1] turned out to be 16 µg/mL (≈ 34.2 µM); in the assay on Staphylococcus aureus [2], 16 µg/mL (≈ 34.2 µM); in the assay with Bacillus cereus it was 16 µg/mL (≈ 34.2 µM); in the assay on Escherichia coli it was 128 µg/mL (≈ 274 µM); with Pseudomonas syringae, 128 µg/mL (≈ 274 µM); in the assay with Ralstonia solanacearum it was 128 µg/mL (≈ 274 µM).

With `Fc1ccc2[nH]cc(CN3CCN(Cc4ccc(Cl)cc4Cl)CC3)c2c1`, the minimal inhibitory concentration (MIC) with Staphylococcus aureus [1] was determined as 8 µg/mL (≈ 20.4 µM); with Staphylococcus aureus [2] it was 8 µg/mL (≈ 20.4 µM); in the assay on Bacillus cereus, 8 µg/mL (≈ 20.4 µM); in the assay with Escherichia coli, 32 µg/mL (≈ 81.6 µM); in the assay on Pseudomonas syringae, 32 µg/mL (≈ 81.6 µM); in the assay with Ralstonia solanacearum, 32 µg/mL (≈ 81.6 µM).

Take `Cn1cc(CN2CCN(Cc3ccc(C(F)(F)F)cc3N3CCCC3)CC2)c2cc(Cl)ccc21`: the MIC came out at 64 µg/mL (≈ 130 µM) with Staphylococcus aureus [1]; 32 µg/mL (≈ 65.2 µM) with Staphylococcus aureus [2]; 32 µg/mL (≈ 65.2 µM) in the assay with Bacillus cereus; 64 µg/mL (≈ 130 µM) with Escherichia coli; 64 µg/mL (≈ 130 µM) in the assay with Pseudomonas syringae; 64 µg/mL (≈ 130 µM) in the assay with Ralstonia solanacearum.

In the case of `COc1ccc2[nH]cc(CN3CCN(Cc4ccc(C(F)(F)F)cc4N4CCCC4)CC3)c2c1`, the minimal inhibitory concentration (MIC) in the assay on Staphylococcus aureus [1] was determined as 8 µg/mL (≈ 16.9 µM); in the assay on Staphylococcus aureus [2], 16 µg/mL (≈ 33.9 µM); in the assay with Bacillus cereus it was 16 µg/mL (≈ 33.9 µM); in the assay on Escherichia coli, 32 µg/mL (≈ 67.7 µM); in the assay on Pseudomonas syringae, 16 µg/mL (≈ 33.9 µM); with Ralstonia solanacearum, 16 µg/mL (≈ 33.9 µM).

With `Cn1cc(CN2CCN(Cc3ccc(Cl)cc3Cl)CC2)c2cc([N+](=O)[O-])ccc21`, the MIC in the assay on Staphylococcus aureus [1] is 8 µg/mL (≈ 18.5 µM); in the assay on Staphylococcus aureus [2] it was 8 µg/mL (≈ 18.5 µM); in the assay on Bacillus cereus, 8 µg/mL (≈ 18.5 µM); in the assay on Escherichia coli it was 64 µg/mL (≈ 148 µM); in the assay on Pseudomonas syringae it was 64 µg/mL (≈ 148 µM); with Ralstonia solanacearum, 32 µg/mL (≈ 73.8 µM).

On to `Clc1ccc(CN2CCN(Cc3c[nH]c4ccc(Cl)cc34)CC2)c(Cl)c1`, for which the MIC with Staphylococcus aureus [1] turned out to be 8 µg/mL (≈ 19.6 µM); in the assay on Staphylococcus aureus [2], 8 µg/mL (≈ 19.6 µM); with Bacillus cereus it was 8 µg/mL (≈ 19.6 µM); with Escherichia coli it was 16 µg/mL (≈ 39.1 µM); with Pseudomonas syringae, 32 µg/mL (≈ 78.3 µM); in the assay on Ralstonia solanacearum, 16 µg/mL (≈ 39.1 µM).

On to `Cn1cc(CN2CCN(Cc3ccc(C(F)(F)F)cc3N3CCCC3)CC2)c2cc(Br)ccc21`, for which the minimal inhibitory concentration (MIC) was found to be 8 µg/mL (≈ 14.9 µM) in the assay with Staphylococcus aureus [1]; 16 µg/mL (≈ 29.9 µM) in the assay on Staphylococcus aureus [2]; 16 µg/mL (≈ 29.9 µM) in the assay on Bacillus cereus; 32 µg/mL (≈ 59.8 µM) in the assay with Escherichia coli; 16 µg/mL (≈ 29.9 µM) with Pseudomonas syringae; 16 µg/mL (≈ 29.9 µM) with Ralstonia solanacearum.

For `N#Cc1ccc2[nH]cc(CN3CCN(Cc4ccc(Cl)cc4Cl)CC3)c2c1`, the MIC came out at 8 µg/mL (≈ 20 µM) with Staphylococcus aureus [1]; 16 µg/mL (≈ 40.1 µM) in the assay on Staphylococcus aureus [2]; 8 µg/mL (≈ 20 µM) in the assay on Bacillus cereus; 32 µg/mL (≈ 80.1 µM) in the assay on Escherichia coli; 32 µg/mL (≈ 80.1 µM) with Pseudomonas syringae; 32 µg/mL (≈ 80.1 µM) in the assay with Ralstonia solanacearum.

For `Cn1cc(CN2CCN(Cc3ccc(Cl)cc3Cl)CC2)c2cc(F)ccc21`, the MIC with Staphylococcus aureus [1] amounted to 8 µg/mL (≈ 19.7 µM); with Staphylococcus aureus [2], 8 µg/mL (≈ 19.7 µM); in the assay on Bacillus cereus it was 8 µg/mL (≈ 19.7 µM); in the assay with Escherichia coli, 32 µg/mL (≈ 78.8 µM); with Pseudomonas syringae, 32 µg/mL (≈ 78.8 µM); in the assay with Ralstonia solanacearum, 32 µg/mL (≈ 78.8 µM).

Take `Cn1cc(CN2CCN(Cc3ccc(C(F)(F)F)cc3N3CCCC3)CC2)c2cc([N+](=O)[O-])ccc21`: the MIC in the assay on Staphylococcus aureus [1], in the assay on Staphylococcus aureus [2], with Bacillus cereus, with Escherichia coli, in the assay on Pseudomonas syringae and in the assay with Ralstonia solanacearum was 128 µg/mL (≈ 255 µM) throughout.

Consider `Cn1cc(CN2CCN(Cc3ccc(Cl)cc3Cl)CC2)c2cc(C#N)ccc21`, for which the minimal inhibitory concentration (MIC) in the assay with Staphylococcus aureus [1] was found to be 8 µg/mL (≈ 19.4 µM); in the assay on Staphylococcus aureus [2], 8 µg/mL (≈ 19.4 µM); with Bacillus cereus, 8 µg/mL (≈ 19.4 µM); in the assay with Escherichia coli, 32 µg/mL (≈ 77.4 µM); in the assay on Pseudomonas syringae, 32 µg/mL (≈ 77.4 µM); in the assay with Ralstonia solanacearum, 16 µg/mL (≈ 38.7 µM).
